According to PubChem BioAssay (NCI):
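Assay format: 96-well plates, 48-hour exposure. The concentration for 50% growth inhibition is given as GI50. TGI is the concentration that stops growth completely.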 Where a SMILES comes first, the peptide text is derived from it. The star is where a group is joined. OSu = O=C1CCC(=O)N1O*

Key:
Experiment in all cases: NCI-60 cell line screen, 48 h
[1] = system: SK-MEL-28 melanoma
[2] = system: OVCAR-5 ovarian
[3] = system: UO-31 renal
[4] = system: EKVX NSCLC
[5] = system: MALME-3M melanoma
[6] = system: HCT-15 colon
[7] = system: HCC-2998 colon
[8] = system: HCT-116 colon
[9] = system: HL-60(TB) leukemia
[10] = system: KM12 colon

| Compound | TGI [1] | TGI [2] | TGI [3] | TGI [4] | TGI [5] | TGI [6] | TGI [7] | TGI [8] | TGI [9] | TGI [10] | GI50 [1] | GI50 [2] | GI50 [3] | GI50 [4] | GI50 [5] | GI50 [6] | GI50 [7] | GI50 [8] | GI50 [9] | GI50 [10] |
| --- | --- | --- | --- | --- | --- | --- | --- | --- | --- | --- | --- | --- | --- | --- | --- | --- | --- | --- | --- | --- |
| CN(C)N=Nc1ccc2[nH]c(=O)[nH]c2c1 | > 100 µM | > 100 µM | > 100 µM | > 100 µM | > 100 µM | > 100 µM | > 100 µM | > 100 µM | 83.7 µM | > 100 µM |  |  |  |  |  |  |  |  |  |  |
| CCC(=O)Nc1ccc(NCC(=O)Nc2ccc(OC)cc2)cc1 | > 100 µM | 37.2 µM | > 100 µM | 70.7 µM | 49.5 µM | > 100 µM | 35.5 µM | 80.3 µM | > 100 µM | > 100 µM |  |  |  |  |  |  |  |  |  |  |
| CCOC(=O)c1nc2cc(C(F)(F)F)ccc2nc1Oc1ccc(F)cc1 | > 100 µM | > 100 µM | > 100 µM | > 100 µM | > 100 µM | > 100 µM | > 100 µM | 64.2 µM | > 100 µM | > 100 µM |  |  |  |  |  |  |  |  |  |  |
| COc1cccc2cc(C(=O)NC34CC5CC(CC(C5)C3)C4)c(=N)oc12 | > 100 µM | > 100 µM | 7.63 µM | > 100 µM | > 100 µM | > 100 µM | > 100 µM | > 100 µM | 29.6 µM | > 100 µM |  |  |  |  |  |  |  |  |  |  |
| CN(C)c1ccc(/C=C(\NC(=O)c2ccccc2)C(=O)NC(Cc2c[nH]c3ccccc23)C(=O)O)cc1 (stereo not given) | > 100 µM | > 100 µM | > 100 µM | > 100 µM | > 100 µM | > 100 µM | > 100 µM | > 100 µM | > 100 µM | > 100 µM |  |  |  |  |  |  |  |  |  |  |
| CNC(=S)/C(C#N)=C(\N)N1CCCC1 | > 100 µM | > 100 µM | > 100 µM | > 100 µM | > 100 µM | > 100 µM | > 100 µM | > 100 µM | > 100 µM | > 100 µM |  |  |  |  |  |  |  |  |  |  |
| NCCCCC(NC(=O)C(N)Cc1ccc(O)cc1)C(=O)NC(Cc1ccc(O)cc1)C(=O)NC(CCCCN)C(=O)ON1C(=O)CCC1=O (stereo not given) (H-YKYK-OSu; configuration not given here) | > 100 µM | > 100 µM | > 100 µM | > 100 µM | > 100 µM | > 100 µM | > 100 µM | > 100 µM | > 100 µM | > 100 µM |  |  |  |  |  |  |  |  |  |  |
| C#C[C@]1(O)CC[C@H]2[C@@H]3CCC4=C/C(=N/OC(=O)c5cccc6c(=O)c7ccccc7[nH]c56)CCC4[C@H]3CC[C@@]21CC (stereo not given in full) | > 100 µM | > 100 µM | > 84.3 µM | > 100 µM | > 100 µM | > 47.7 µM | > 90.9 µM | > 100 µM | 11.7 µM | > 100 µM |  |  |  |  |  |  |  |  |  |  |
| COc1ccccc1C1C(C#N)=C(N)Oc2cc(O)ccc21 (stereo not given) | 86.1 µM | > 100 µM | > 100 µM | > 100 µM | 88.6 µM | > 100 µM | 35.5 µM | 26.4 µM | > 100 µM | > 100 µM | 25 µM | 29.2 µM | 29.3 µM | 34.6 µM | 21.6 µM | 23.9 µM | 11.7 µM | 12.5 µM | 18.8 µM | 9.57 µM |
| O=C1NC(=Nc2ccccc2)C(=Nc2ccccc2)N1c1ccccc1 | 28.4 µM | 32.7 µM | 30.1 µM | 31.5 µM | 31.6 µM | 28.2 µM | 30.7 µM | 32.3 µM | 52.8 µM | 32.8 µM |  |  |  |  |  |  |  |  |  |  |
| COc1ccc2c3c1OC1C(OC)(OC)CC4(C=C2)CN(C)CCC314 (stereo not given) | > 100 µM | > 100 µM | > 100 µM | > 100 µM | > 100 µM | > 100 µM | > 100 µM | > 100 µM | > 100 µM | > 100 µM |  |  |  |  |  |  |  |  |  |  |
| C[n+]1cn(-c2nc3ccccc3nc2[N-]S(=O)(=O)c2ccccc2)c2ccccc21 | > 100 µM | > 100 µM | > 100 µM | > 100 µM | > 100 µM | > 100 µM | > 100 µM | > 100 µM | > 100 µM | > 100 µM |  |  |  |  |  |  |  |  |  |  |
| CC(=O)c1c(O)n(-c2ccc(C)cc2)c(=O)c2c(N)n[nH]c12 | > 100 µM | > 100 µM | > 100 µM | > 100 µM | > 100 µM | > 100 µM | > 100 µM | > 100 µM | > 100 µM | > 100 µM |  |  |  |  |  |  |  |  |  |  |
| CCn1c(CSc2nc(-c3ccccc3)c(-c3ccccc3)[nH]2)n[nH]c1=S | > 100 µM | > 100 µM | > 100 µM | > 100 µM | > 100 µM | > 100 µM | > 100 µM | > 100 µM | > 100 µM | > 100 µM |  |  |  |  |  |  |  |  |  |  |
| CCOC(=O)C1(C(=O)OCC)C=C(c2ccccc2)N(C2OC(COC(C)=O)C(OC(C)=O)C(OC(C)=O)C2OC(C)=O)C1=S (stereo not given) | > 100 µM | > 100 µM | > 100 µM | > 100 µM | > 100 µM | > 100 µM | > 100 µM | > 100 µM | 81.5 µM | > 100 µM |  |  |  |  |  |  |  |  |  |  |
| CCN(CC)CCN1C(=O)C(=O)N(c2cccc3ccccc23)C1=O | > 10 µM | > 10 µM | > 10 µM | > 10 µM | > 10 µM | > 10 µM | > 10 µM | > 10 µM | > 10 µM | > 10 µM |  |  |  |  |  |  |  |  |  |  |
| N#Cc1c(-c2ccc([N+](=O)[O-])cc2)cc(-c2ccc(Nc3ccnc4cc(Cl)ccc34)cc2)nc1N | > 100 µM | 45.6 µM | 42.8 µM | 38 µM | 39.9 µM | 18.6 µM | 43.2 µM | 14.7 µM | 26 µM | 14.7 µM |  |  |  |  |  |  |  |  |  |  |
| NS(=O)(=O)c1nnc(NS(=O)(=O)c2ccc([N+](=O)[O-])cc2)s1 | > 100 µM | > 100 µM | > 100 µM | > 100 µM | > 100 µM | > 100 µM | > 100 µM | > 100 µM | > 100 µM | > 100 µM |  |  |  |  |  |  |  |  |  |  |
| NC(N)=N/N=C/c1c(-c2cc([N+](=O)[O-])c(Cl)cc2Cl)nc2n1CCS2 | 22.2 µM | > 100 µM | 38.2 µM | > 100 µM | 57.9 µM | > 100 µM | 5.4 µM | > 100 µM | 41 µM | > 100 µM |  |  |  |  |  |  |  |  |  |  |
| CCNC(=S)NNC(=O)CSc1nc2ccc(I)cc2c(=O)n1Cc1ccccc1 | > 100 µM | > 100 µM | 0.136 µM | > 88 µM | > 67.8 µM | > 100 µM | > 85.7 µM | > 77.1 µM | > 34.7 µM | > 100 µM |  |  |  |  |  |  |  |  |  |  |
| O/N=C\C(=Nc1ccc(Cc2ccc(N=C(/C=N\O)NO)cc2)cc1)NO | > 100 µM | > 100 µM | 65 µM | > 100 µM | > 100 µM | > 100 µM | > 100 µM | > 100 µM | 66.5 µM | > 100 µM |  |  |  |  |  |  |  |  |  |  |
| COc1cc(OC)c(OC)cc1/C=C/c1cc[n+](C)c2ccccc12 | > 100 µM | > 100 µM | > 100 µM | > 100 µM | > 100 µM | > 100 µM | > 100 µM | > 100 µM | 33 µM | 75 µM |  |  |  |  |  |  |  |  |  |  |
